Laboratory results published in US9624209B2, “Substituted phenylureas and phenylamides as vanilloid receptor ligands” (Gruenenthal GmbH, priority 2009, dated 2017).

Target: T1, vanilloid receptor 1 (VR1/TRPV1 receptor) (Homo sapiens, UniProt Q8NER1)
T1 construct: expressed in transfected cells; host or cells: CHO K1 cells (ECACC), stably transfected
Assay: VR1/TRPV1 receptor affinity, capsaicin stimulus (human)
Format: cell-based, human being
Set-up: key to (f) Ki (human being) [nM] Cap: result in words: AG=agonist; pAG=partial agonist; NE=no effect
Conditions: for Ki: Tables 8-12, read-out: (f) Ki (human being) [nM] Cap; for inhibition at 5 µM: Tables 8-12, read-out: (f) Ki (human being) [nM] Cap: inhibition (as a percentage)

T1 sequence (Q8NER1 whole entry): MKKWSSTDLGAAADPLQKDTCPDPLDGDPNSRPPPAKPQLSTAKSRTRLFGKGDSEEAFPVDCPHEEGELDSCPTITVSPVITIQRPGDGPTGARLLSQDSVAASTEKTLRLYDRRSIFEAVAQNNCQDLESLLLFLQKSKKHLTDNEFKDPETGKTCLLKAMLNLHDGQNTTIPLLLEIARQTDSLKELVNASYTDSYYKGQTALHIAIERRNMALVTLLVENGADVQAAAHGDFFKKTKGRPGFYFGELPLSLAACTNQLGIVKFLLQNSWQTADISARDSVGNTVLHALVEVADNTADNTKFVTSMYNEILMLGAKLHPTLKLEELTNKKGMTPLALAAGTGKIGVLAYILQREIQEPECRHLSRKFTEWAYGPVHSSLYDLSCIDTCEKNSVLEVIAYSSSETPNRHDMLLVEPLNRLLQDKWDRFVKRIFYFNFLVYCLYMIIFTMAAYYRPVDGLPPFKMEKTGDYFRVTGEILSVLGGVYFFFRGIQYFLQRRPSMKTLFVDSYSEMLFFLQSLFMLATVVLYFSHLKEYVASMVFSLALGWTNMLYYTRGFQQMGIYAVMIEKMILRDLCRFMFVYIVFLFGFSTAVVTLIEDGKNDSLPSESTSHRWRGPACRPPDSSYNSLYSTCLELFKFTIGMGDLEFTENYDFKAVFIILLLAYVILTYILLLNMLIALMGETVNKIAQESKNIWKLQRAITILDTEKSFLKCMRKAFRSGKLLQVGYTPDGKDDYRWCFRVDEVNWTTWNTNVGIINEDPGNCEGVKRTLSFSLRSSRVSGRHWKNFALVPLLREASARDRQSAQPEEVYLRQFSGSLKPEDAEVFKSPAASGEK

SMILES	Ki	also measured
CC(C)(C)c1cc(CNC(=O)Nc2ccc(N3CC(O)C3)c(F)c2)n(-c2cccc(Cl)c2)n1 [Example C7, 1-[[5-tert-Butyl-2-(3-chlorophenyl)-2H-pyrazol-3-yl]-methyl]-3-[3-fluoro-4-(3-hydroxy-azetidin-1-yl)-phenyl]-urea]	15 nM	–
O=C(NCc1cc(C(F)(F)F)nn1-c1cccc(F)c1)Nc1ccc(N2CC(O)C2)c(F)c1 [Example C9, 1-[3-Fluoro-4-(3-hydroxy-azetidin-1-yl)-phenyl]-3-[[2-(3-fluorophenyl)-5-(trifluoromethyl)-2H-pyrazol-3-yl]-methyl]-urea]	–	inhibition at 5 µM: 50%
CC(C(=O)NCc1cc(C(C)(C)C)nn1-c1cccc(Cl)c1)c1ccc(S(C)(=O)=O)c(F)c1 (centres unmarked) [Example D1, N-[[5-tert-Butyl-2-(3-chlorophenyl)-2H-pyrazol-3-yl]-methyl]-2-(3-fluoro-4-methylsulfonyl-phenyl)-propionamide]	–	(f) Ki (human being) [nM] Cap: result in words (Tables 8-12): AG
CC(C(=O)NCc1cc(C(F)(F)F)nn1-c1cccc(Cl)c1)c1ccc(S(C)(=O)=O)c(F)c1 (centres unmarked) [Example D2, N-[[2-(3-Chlorophenyl)-5-(trifluoromethyl)-2H-pyrazol-3-yl]-methyl]-2-(3-fluoro-4-methylsulfonyl-phenyl)-propionamide]	73 nM	–
CC(C(=O)NCc1cc(C(F)(F)F)nn1-c1cccc(F)c1)c1ccc(S(C)(=O)=O)c(F)c1 (centres unmarked) [Example D3, 2-(3-Fluoro-4-methylsulfonyl-phenyl)-N-[[2-(3-fluorophenyl)-5-(trifluoromethyl)-2H-pyrazol-3-yl]-methyl]-propionamide]	–	inhibition at 5 µM: 55%
CC(C(=O)NCc1cc(C(F)(F)F)nn1-c1ccc(F)c(Cl)c1)c1ccc(S(C)(=O)=O)c(F)c1 (centres unmarked) [Example D4, N-[[2-(3-Chloro-4-fluoro-phenyl)-5-(trifluoromethyl)-2H-pyrazol-3-yl]-methyl]-2-(3-fluoro-4-methylsulfonyl-phenyl)-propionamide]	41 nM	–
CC(C(=O)NCc1cc(C(F)(F)F)nn1-c1cccc(Cl)c1)c1ccc(S(C)(=O)=O)c(Cl)c1 (centres unmarked) [Example D5, 2-(3-Chloro-4-methylsulfonyl-phenyl)-N-[[2-(3-chlorophenyl)-5-(trifluoromethyl)-2H-pyrazol-3-yl]-methyl]-propionamide]	7 nM	–
CC(C(=O)NCc1cc(C(F)(F)F)nn1-c1cccc(Cl)c1)c1ccc(CS(C)(=O)=O)c(F)c1 (centres unmarked) [Example D6, N-[[2-(3-Chlorophenyl)-5-(trifluoromethyl)-2H-pyrazol-3-yl]-methyl]-2-[3-fluoro-4-(methylsulfonyl-methyl)-phenyl]-propionamide]	38 nM	–
CC(C(=O)NCc1cc(C(C)(C)C)nn1-c1cccc(Cl)c1)c1ccc(CS(C)(=O)=O)c(F)c1 (centres unmarked) [Example D7, N-[[5-tert-Butyl-2-(3-chlorophenyl)-2H-pyrazol-3-yl]-methyl]-2-[3-fluoro-4-(methylsulfonyl-methyl)-phenyl]-propionamide]	27 nM	–
CC(C(=O)NCc1cc(C(C)(C)C)nn1-c1ccc(F)c(Cl)c1)c1ccc(CS(C)(=O)=O)c(F)c1 (centres unmarked) [Example D8, N-[[5-tert-Butyl-2-(3-chloro-4-fluoro-phenyl)-2H-pyrazol-3-yl]-methyl]-2-[3-fluoro-4-(methylsulfonyl-methyl)-phenyl]-propionamide]	48 nM	–
CC(C(=O)NCc1cc(C(C)(C)C)nn1-c1cccc(F)c1)c1ccc(CS(C)(=O)=O)c(F)c1 (centres unmarked) [Example D9, N-[[5-tert-Butyl-2-(3-fluorophenyl)-2H-pyrazol-3-yl]-methyl]-2-[3-fluoro-4-(methylsulfonyl-methyl)-phenyl]-propionamide]	30 nM	–
CC(C(=O)NCc1cc(C(F)(F)F)nn1-c1cccc(F)c1)c1ccc(CS(C)(=O)=O)c(F)c1 (centres unmarked) [Example D10, 2-[3-Fluoro-4-(methylsulfonyl-methyl)-phenyl]-N-[[2-(3-fluorophenyl)-5-(trifluoromethyl)-2H-pyrazol-3-yl]-methyl]-propionamide]	75 nM	–
CS(=O)(=O)CCc1ccc(NC(=O)NCc2cc(C3CC3)nn2-c2cccc(Cl)c2)cc1F [Example D26, 1-[[2-(3-Chlorophenyl)-5-cyclopropyl-2H-pyrazol-3-yl]-methyl]-3-[3-fluoro-4-(2-methylsulfonyl-ethyl)-phenyl]-urea]	42 nM	–
CS(=O)(=O)CCc1ccc(NC(=O)NCc2cc(C(F)(F)F)nn2-c2cccc(Cl)c2)cc1F [Example D27, 1-[[2-(3-Chlorophenyl)-5-(trifluoromethyl)-2H-pyrazol-3-yl]-methyl]-3-[3-fluoro-4-(2-methylsulfonyl-ethyl)-phenyl]-urea]	40 nM	–
CS(=O)(=O)CCc1ccc(NC(=O)NCc2cc(C(F)(F)F)nn2-c2ccc(F)c(Cl)c2)cc1F [Example D28, 1-[[2-(3-Chloro-4-fluoro-phenyl)-5-(trifluoromethyl)-2H-pyrazol-3-yl]-methyl]-3-[3-fluoro-4-(2-methylsulfonyl-ethyl)-phenyl]-urea]	32 nM	–
CC(C)(C)c1cc(CNC(=O)Nc2ccc(CCS(C)(=O)=O)c(F)c2)n(-c2cccc(Cl)c2)n1 [Example D29, 1-[[5-tert-Butyl-2-(3-chlorophenyl)-2H-pyrazol-3-yl]-methyl]-3-[3-fluoro-4-(2-methylsulfonyl-ethyl)-phenyl]-urea]	13 nM	–
CC(C)(C)c1cc(CNC(=O)Nc2ccc(CCS(C)(=O)=O)c(F)c2)n(-c2cc(F)cc(F)c2)n1 [Example D31, 1-[[5-tert-Butyl-2-(3,5-difluoro-phenyl)-2H-pyrazol-3-yl]-methyl]-3-[3-fluoro-4-(2-methylsulfonyl-ethyl)-phenyl]-urea]	15 nM	–
CC(C)c1cccc(-n2nc(C(F)(F)F)cc2CNC(=O)Nc2ccc(CCS(C)(=O)=O)c(F)c2)c1 [Example D33, 1-[3-Fluoro-4-(2-methylsulfonyl-ethyl)-phenyl]-3-[[2-(3-isopropyl-phenyl)-5-(trifluoromethyl)-2H-pyrazol-3-yl]-methyl]-urea]	4 nM	–
CCC(=O)c1ccc(C(C)C(=O)NCc2cc(C(F)(F)F)nn2-c2cccc(F)c2)cc1F (centres unmarked) [Example E1, N-[[2-(3-Fluorophenyl)-5-(trifluoromethyl)-2H-pyrazol-3-yl]-methyl]-2-(3-fluoro-4-propanoyl-phenyl)-propionamide]	24 nM	–
CCC(=O)c1ccc(C(C)C(=O)NCc2cc(C(F)(F)F)nn2-c2cccc(OC)c2)cc1F (centres unmarked) [Example E2, 2-(3-Fluoro-4-propanoyl-phenyl)-N-[[2-(3-methoxyphenyl)-5-(trifluoromethyl)-2H-pyrazol-3-yl]-methyl]-propionamide]	35 nM	–
CCC(=O)c1ccc(C(C)C(=O)NCc2cc(C(F)(F)F)nn2-c2ccc(F)c(F)c2)cc1F (centres unmarked) [Example E3, N-[[2-(3,4-Difluoro-phenyl)-5-(trifluoromethyl)-2H-pyrazol-3-yl]-methyl]-2-(3-fluoro-4-propanoyl-phenyl)-propionamide]	62 nM	–
CC(C(=O)NCc1cc(C(F)(F)F)nn1-c1cccc(Cl)c1)c1ccc(C(N)=O)c(F)c1 (centres unmarked) [Example E4, 4-[1-[[2-(3-Chlorphenyl)-5-(trifluormethyl)-2H-pyrazol-3-yl]-methyl-carbamoyl]-ethyl]-2-fluoro-benzamide]	8 nM	–
CC(C)(C)c1cc(CNC(=O)Nc2ccc(C(=O)N3CCOCC3)c(F)c2)n(-c2cccc(Cl)c2)n1 [Example E14, 1-[[5-tert-Butyl-2-(3-chlorophenyl)-2H-pyrazol-3-yl]-methyl]-3-[3-fluoro-4-(morpholine-4-carbonyl)-phenyl]-urea]	–	inhibition at 5 µM: 38%
